Tests used:
[1] = Cytotoxicity assay in Vero cells; format: cell-based; details: African green monkey, Vero cells
Experimental: (§1) The toxicity of the compounds was assessed in Vero, human PBM, CEM (human lymphoblastoid), MT-2, and HepG2 cells, as described previously (see Schinazi R. F., Sommadossi J.-P., Saalmann V., Cannon D. L., Xie M.-Y., Hart G. C., Smith G. A. & Hahn E. F. Antimicrob. Agents Chemother. 1990, 34, 1061-67). Cycloheximide was included as positive cytotoxic control, and untreated cells exposed to solvent were included as negative controls. The cytotoxicity IC50 was obtained from the concentration-response curve using the median effective method described previously (see Chou T.-C. & Talalay P. Adv. Enzyme Regul. 1984, 22, 27-55; Belen'kii M. S. & Schinazi R. F. Antiviral Res. 1994, 25,1-11).

Vero cells = assay: Cytotoxicity assay in Vero cells; format: cell-based; details: Chlorocebus sabaeus; VERO cells, 100 μM
Experimental: as §1

Cathepsin S = target: T1, Cathepsin S (Homo sapiens, UniProt P25774); assay: Inhibition of human proteases: cathepsin S; format: biochemical
T1 construct: purchased Anaspec
Experimental: (§2) In an effort to circumvent similar toxicities, new protease inhibitors were evaluated for inhibition of a panel of important human proteases. The enzymes tested are Elastase (Neutrophil), Plasmin, Thrombin, and Cathepsin S.
Cathespsin S (Sensolyte Cathepsin S Activity Assay Kit (Anaspec)): Reactions were conducted in a sample volume of 100 μL per well in a black 96 well plate. Protocol A was followed from the kit insert where DTT was added to assay buffer to yield a […] concentration. Included in each assay were a positive control (diluted enzyme and no test compound), inhibitor control (contains diluted enzyme and plasmin inhibitor; component E or thrombin inhibitor; N-a-NAPAP synthetic inhibitor) and substrate control (assay buffer and substrate). Vehicle and autofluorescence controls were also performed. Drug dilutions were added (10 μL) at 10× concentrations in assay buffer. The cathepsin S was added at 40 μL/well at a concentration of 2.5 μg/mL to all wells except the substrate control. Finally, 50 µL of assay buffer containing substrate was added to each well. The substrate was added to a final concentration of 16 nM. […] The fluorescence intensity was read on the Victor 3 plate reader at Ex/Em=490 nm/520 nm. […] Results are shown as substrate control adjusted percentages of maximum absorbance, which was given by the positive control.

Chymase = Chymase (Homo sapiens, UniProt P23946); assay: Inhibition of human proteases: chymase; format: biochemical
[2] = system: Hepatitis C Virus NS3/4A protease V170A; format: biochemical; details: V170A vs Wild Type
[3] = target: Hepatitis C Virus NS3/4A protease A156T (Hepatitis C virus genotype 1b, UniProt O92972, A1182T); assay: biochemical
[4] = system: Hepatitis C Virus NS3/4A protease A156T; assay: biochemical; details: A156T vs Wild Type
[5] = Cytotoxicity assay in human PBM cells; format: cell-based; details: human, human PBM cells
Experimental: as §1

human PBM cells = assay: Cytotoxicity assay in human PBM cells; format: cell-based; details: Homo sapiens, PBMC; PBM cells, 100 μM
Experimental: as §1

[6] = target: T2, Elastase (Human Neutrophil) (Homo sapiens, UniProt P08246); assay: Inhibition of human proteases: elastase; format: biochemical
T2 construct: purchased Athens Research and Technology 16-14-051200
Experimental: as §2
Elastase (Human Neutrophil (Cat #16-14-051200 Athens Research and Technology, Athens Ga.)): Reactions were conducted in a sample volume of 100 μL per well in a clear 96 well plate. A 2× assay buffer was made containing 200 mM Tris-HCl (pH 7.5), 150 mM NaCl and 50% glycerol. For each sample 50 μL 2× assay buffer was added to each well. The substrate (MeOSuc-AAPV-pNA, Chromogenic Substrate, Cat #P-213, Enzo Life Sciences, Plymouth Meeting, Pa.; 50 mM stock in DMSO) was added to a final concentration of 1 mM. The drug dilutions were added (25 μL) at 4× concentrations in water. Finally, a mixture was made of 1 μL elastase and 22 μL water for each sample and 23 μL was added to each well. The samples were incubated at room temperature for 30 min. The absorbance at 405 nm was read on the Victor 3 plate reader. All samples were tested in duplicate. Results are shown as blank adjusted (no Elastase) percentages of maximum absorbance, which was given by a no inhibitor control.

[7] = target: Hepatitis C Virus NS3/4A protease T54A (Hepatitis C virus genotype 1b, UniProt O92972, T1080A); assay: biochemical
[8] = system: Hepatitis C Virus NS3/4A protease T54A; assay: biochemical; details: T54A vs Wild Type
Kallikrein = assay: Inhibition of human proteases: kallikrein; format: biochemical
[9] = system: cellular rRNA (cytotoxicity marker); assay: HCV replicon assay, cytotoxicity by rRNA; format: cell-based; details: human, Huh 7 Clone B cells containing HCV replicon RNA; rRNA, Huh 7 Clone B cells
Experimental: (§3) Huh 7 Clone B cells containing HCV replicon RNA would be seeded in a 96-well plate at 5000 cells/well, and the compounds tested at 10 μM in triplicate immediately after seeding. Following five days incubation (37° C., 5% CO2), total cellular RNA was isolated by using versaGene RNA purification kit from Gentra. Replicon RNA and an internal control (TaqMan rRNA control reagents, Applied Biosystems) were amplified in a single step multiplex Real Time RT-PCR Assay. The antiviral effectiveness of the compounds was calculated by subtracting the threshold RT-PCR cycle of the test compound from the threshold RT-PCR cycle of the no-drug control (ΔCt HCV). A ΔCt of 3.3 equals a 1-log reduction (equal to 90% less starting material) in Replicon RNA levels. The cytotoxicity of the compounds was also calculated by using the ΔCt rRNA values. (2′-Me-C) was used as the control. To determine EC90 and IC50 values^2, ΔCt: values were first converted into fraction of starting material^3 and then were used to calculate the % inhibition.

[10] = system: Huh 7 Clone B cells (rRNA); assay: HCV replicon assay, cytotoxicity by rRNA; format: cell-based; details: five days
Experimental: as §3

Chain of Hepatitis C Virus NS3/4A protease T54A (Hepatitis C virus genotype 1b, UniProt O92972, T1080A) (O92972 1027-1657 T1080A): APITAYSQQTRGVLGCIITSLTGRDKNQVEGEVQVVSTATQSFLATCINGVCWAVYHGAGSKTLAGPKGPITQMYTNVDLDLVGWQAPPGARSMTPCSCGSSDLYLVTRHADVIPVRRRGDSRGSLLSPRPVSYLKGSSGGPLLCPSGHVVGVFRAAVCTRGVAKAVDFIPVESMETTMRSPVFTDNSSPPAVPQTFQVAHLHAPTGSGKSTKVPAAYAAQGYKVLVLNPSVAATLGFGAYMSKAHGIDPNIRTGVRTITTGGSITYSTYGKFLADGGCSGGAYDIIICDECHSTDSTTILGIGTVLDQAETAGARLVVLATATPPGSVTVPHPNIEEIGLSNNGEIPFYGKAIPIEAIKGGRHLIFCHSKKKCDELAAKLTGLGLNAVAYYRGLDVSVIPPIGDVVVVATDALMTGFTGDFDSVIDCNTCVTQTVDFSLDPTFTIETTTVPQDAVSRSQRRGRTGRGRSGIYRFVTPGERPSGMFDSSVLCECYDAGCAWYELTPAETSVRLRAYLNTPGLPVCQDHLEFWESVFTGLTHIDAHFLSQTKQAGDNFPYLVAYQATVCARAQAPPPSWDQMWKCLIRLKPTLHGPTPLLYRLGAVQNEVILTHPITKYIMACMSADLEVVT
Chain of Hepatitis C Virus NS3/4A protease T54A (Hepatitis C virus genotype 1b, UniProt O92972, T1080A) (O92972 1658-1711 partner limits assumed): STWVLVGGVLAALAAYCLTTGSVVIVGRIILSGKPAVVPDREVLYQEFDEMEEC
Chain of Hepatitis C Virus NS3/4A protease A156T (Hepatitis C virus genotype 1b, UniProt O92972, A1182T) (O92972 1027-1657 A1182T): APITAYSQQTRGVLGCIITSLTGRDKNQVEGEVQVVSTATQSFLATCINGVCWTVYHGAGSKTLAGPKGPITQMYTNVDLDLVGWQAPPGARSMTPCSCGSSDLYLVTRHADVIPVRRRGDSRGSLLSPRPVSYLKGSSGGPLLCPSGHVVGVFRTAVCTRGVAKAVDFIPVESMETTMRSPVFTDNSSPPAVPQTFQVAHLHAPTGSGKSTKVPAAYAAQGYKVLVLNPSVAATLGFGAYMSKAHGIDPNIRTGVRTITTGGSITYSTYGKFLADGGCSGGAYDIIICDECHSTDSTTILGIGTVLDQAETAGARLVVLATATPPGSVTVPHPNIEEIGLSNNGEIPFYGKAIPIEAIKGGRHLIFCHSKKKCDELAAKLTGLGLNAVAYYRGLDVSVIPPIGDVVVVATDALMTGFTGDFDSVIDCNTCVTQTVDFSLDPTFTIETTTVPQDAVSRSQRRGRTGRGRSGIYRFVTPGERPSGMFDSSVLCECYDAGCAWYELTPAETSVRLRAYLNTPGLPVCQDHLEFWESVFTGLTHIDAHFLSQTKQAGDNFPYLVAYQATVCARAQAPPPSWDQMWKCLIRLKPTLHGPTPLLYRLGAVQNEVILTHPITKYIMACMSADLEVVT
Chain of Hepatitis C Virus NS3/4A protease A156T (Hepatitis C virus genotype 1b, UniProt O92972, A1182T) (O92972 1658-1711 partner limits assumed): as the sequence (O92972 1658-1711 partner limits assumed) above
T2 sequence (P08246 30-267): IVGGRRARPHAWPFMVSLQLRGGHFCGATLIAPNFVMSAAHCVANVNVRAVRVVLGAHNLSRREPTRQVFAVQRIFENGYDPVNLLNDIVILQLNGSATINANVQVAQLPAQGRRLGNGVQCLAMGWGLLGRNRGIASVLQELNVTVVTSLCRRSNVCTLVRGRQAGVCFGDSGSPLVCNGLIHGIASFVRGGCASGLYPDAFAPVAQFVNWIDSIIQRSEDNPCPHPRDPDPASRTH
T1 sequence (P25774 115-331): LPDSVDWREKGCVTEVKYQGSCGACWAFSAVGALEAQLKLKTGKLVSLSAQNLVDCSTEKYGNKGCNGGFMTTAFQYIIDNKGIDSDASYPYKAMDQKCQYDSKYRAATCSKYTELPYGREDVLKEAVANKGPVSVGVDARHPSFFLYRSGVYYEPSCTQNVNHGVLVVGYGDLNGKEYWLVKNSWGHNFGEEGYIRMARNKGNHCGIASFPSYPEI
Chain of Chymase (P23946 22-247): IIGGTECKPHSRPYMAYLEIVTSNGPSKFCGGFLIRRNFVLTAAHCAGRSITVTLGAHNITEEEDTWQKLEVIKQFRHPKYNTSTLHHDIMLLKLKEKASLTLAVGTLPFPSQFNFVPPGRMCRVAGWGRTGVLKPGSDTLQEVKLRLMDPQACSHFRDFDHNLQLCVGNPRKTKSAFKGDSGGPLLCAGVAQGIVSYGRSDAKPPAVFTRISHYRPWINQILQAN

## C=C[C@@H]1C[C@]1(NC(=O)[C@@H]1C[C@@H](OC(=O)N2Cc3cccc(F)c3C2)CN1C(=O)[C@@H](NC(=O)OC(C)(C)C)C(C)(C)C)C(=O)NS(=O)(=O)C1CC1 [Compound 10]
[1]
  IC50: > 100000 nM
Vero cells
  inhibition at 100 µM: -0.8%
Cathepsin S
  IC50: > 100000 nM
Chymase
  IC50: > 100000 nM
[2]
  Fold Increase of EC50: 1.1
  Fold Increase of EC90: 0.3
[3]
  EC50: 33 nM
[3]; A156T, read-out: Anti-HCV protease activity EC90
  EC90: 130 nM
[4]
  Fold Increase of EC50: 6.7
  Fold Increase of EC90: 4.4
[5]
  IC50: > 100000 nM
Human PBM cells
  inhibition at 100 µM: 17%
[6]
  IC50: > 100000 nM
[7]
  EC50: 70 nM
[7]; T54A, read-out: Anti-HCV protease activity EC90
  EC90: 850 nM
[8]
  Fold Increase of EC50: 15.0
  Fold Increase of EC90: 28.5
Kallikrein
  IC50: 47000 nM
[9]
  CC50 at 5 days: > 300 nM
[10]; Conc 0.01 μM
  DCt rRNA: −0.21
  rRNA (% inhibition): −15.99
[10]; Conc 0.03 μM
  DCt rRNA: −0.49
  rRNA (% inhibition): −40.10
[10]; Conc 0.1 μM
  DCt rRNA: −0.09
  rRNA (% inhibition): −6.27
[10]; Conc 0.3 μM
  DCt rRNA: 0.14
  rRNA (% inhibition): 9.35

— US8729014B2, “Specific HCV NS3 protease inhibitors” (RFS Pharma, LLC, priority 2010, dated 2014)
